According to PMC3481155, “AhR activation underlies the CYP1A autoinduction by A-998679 in rats” (Frontiers in Genetics, 2012):

Legend:
Cyp1a1 = Cyp1a1 mRNA in rat small intestine (jejunum); format: in vivo
Description: (§1) All animal experiments were conducted in accordance with the Guiding Principles in the Use of Animals in Toxicology (http://www.toxicology.org/ai/air/air6.asp) and were approved by Abbott's Institutional Animal Care and Use Committee (IACUC). Male Sprague-Dawley rats [Crl:CD®(SD)IGS BR], weighing ~250 g at study initiation were obtained from Charles River Laboratories, Inc. (Wilmington, MA). Rats were housed singly in ventilated, stainless steel, wire-bottom hanging cages and fed non-certified Rodent Chow (Harlan Labs, Madison, WI), and water ad libitum and acclimated for at least 5 days after arrival. […] Serum clinical chemistry parameters were quantified using an Aeroset Clinical Chemistry Analyzer (Abbott Laboratories, Abbott Park, IL) and included alanine amino transferase (ALT), aspartate amino transferase (AST), gamma glutamyltransferase (GGT), and alkaline phosphatase (ALP) activities.
(§2) Frozen liver or jejunum were immediately added to 4 ml of TRIzol reagent (Invitrogen Life Technologies) and homogenized using a Polytron 300D homogenizer (Brinkman Instruments, Westbury, NY). […] Nucleic acid concentration was determined by OD 260 nm (Smart-Spec, Bio-Rad Laboratories, Hercules, CA), and RNA integrity was evaluated using an Agilent 2100 bioanalyzer (Agilent Technologies, Foster City, CA). […]

Cyp1a2 = Cyp1a2 mRNA in rat small intestine (jejunum); format: in vivo; conditions: data not shown
Description: as §1, §2

rat Cyp1a2 = biological target: T1, rat Cyp1a2 (Rattus norvegicus, UniProt P04799); assay: Recombinant rat Cyp phenotype profiling, 1A2; format: in vitro ADME; conditions: 60 min
T1 construct: purchased BD Gentest; host or cells: baculovirus infected insect cells
Description: (§3) Identification of the drug metabolizing enzymes (DMEs) of A-998679 was studied in cDNA expressed recombinant enzymes prepared from baculovirus infected insect cells over-expressing rat Cyp isoforms (BD Gentest, Woburn, MA) as listed in Table 2. Incubations were conducted in duplicate using Supersomes. The incubation mixture contained 100 pmol/ml of enzymes, except for Cyp1a1 (200 pmol/ml), 0.1 or 0.21 μM of [^3H]A-998679 in 100 mM phosphate buffer (pH 7.4). Reactions were initiated with the addition of NADPH at a final concentration of 1 mM and incubated at 37°C for 60 min. At the end of the incubation period, the incubations were terminated by the addition of acetonitrile/ethanol (50/50, v/v) solution. Insect control samples lacking expressed enzyme were used as negative control. The degree of metabolism of A-998679 was assessed by percent of parent remaining using the radio-HPLC method described below.
(§4) Radiolabeled components from the above assays were profiled following separation by HPLC with on line radioflow detector. The system consisted of an Agilent 1100 Series quaternary pump and autosampler connected to a Packard 500TR flow scintillation detector. The data were processed using the Radiomatic™ Flo-one® software v3.65. The scintillant (Perkin Elmer FLO-SCINT™ III) flow was maintained at 3 ml/min. […]

rat Cyp 2A1 = biological target: T2, rat Cyp 2A1 (Rattus norvegicus, UniProt P11711); assay: Recombinant rat Cyp phenotype profiling, 2A1; format: in vitro ADME; conditions: 60 min
T2 construct: purchased BD Gentest; host or cells: baculovirus infected insect cells
Description: as §3, §4

rat Cyp 2D1 = biological target: T3, rat Cyp 2D1 (Rattus norvegicus, UniProt P10633); assay: Recombinant rat Cyp phenotype profiling, 2D1; format: in vitro ADME; conditions: 60 min
T3 construct: purchased BD Gentest; host or cells: baculovirus infected insect cells
Description: as §3, §4

CYP3A4 = biological target: T4, CYP3A4 (Homo sapiens, UniProt P08684); assay: CYP inhibition evaluation in human liver microsomes, CYP3A4 (midazolam); format: in vitro ADME; conditions: probe substrate midazolam
T4 construct: from tissue; host or cells: human liver microsomes
Description: Incubations were performed in human liver microsomes using probe substrate concentrations similar to their corresponding Km values. Enzyme activity was evaluated in the presence of various concentrations of A-998679. The incubations consisted of the test article at varying concentrations (0–30 μM), probe substrate (concentration ~Km, see Table A2), human liver microsomal protein and 1 mM NADPH in 50 mM phosphate buffer at pH 7.4. Relative quantitation of the metabolites was obtained by LC-MS/MS using an ABSciex (Foster City, CA) API3000 or API4000 Qtrap hybrid linear ion trap mass spectrometer equipped with a TurboIonspray source using either PerkinElmer series 200 pumps or Agilent 1100 series pump with a Leap autosampler. Analytes were separated using a Phenomenex Prodigy ODS(3) 5 μm, 50 × 2.0 mm column at 50°C, eluted and detected under the specific conditions listed in Tables A3, A4, and A5. The analyte to internal standard peak area ratios were determined using Analyst 1.4 software (Applied Biosytems, Carlsbad, CA). The peak area ratios observed in the presence of test article were compared to the vehicle control in order to determine percent activity. To determine the IC50, the data were plotted as Log [dose] μM vs. % inhibition, and analyzed with a sigmoidal dose-response (variable slope) fitting equation. […]

T1 sequence (P04799 whole entry): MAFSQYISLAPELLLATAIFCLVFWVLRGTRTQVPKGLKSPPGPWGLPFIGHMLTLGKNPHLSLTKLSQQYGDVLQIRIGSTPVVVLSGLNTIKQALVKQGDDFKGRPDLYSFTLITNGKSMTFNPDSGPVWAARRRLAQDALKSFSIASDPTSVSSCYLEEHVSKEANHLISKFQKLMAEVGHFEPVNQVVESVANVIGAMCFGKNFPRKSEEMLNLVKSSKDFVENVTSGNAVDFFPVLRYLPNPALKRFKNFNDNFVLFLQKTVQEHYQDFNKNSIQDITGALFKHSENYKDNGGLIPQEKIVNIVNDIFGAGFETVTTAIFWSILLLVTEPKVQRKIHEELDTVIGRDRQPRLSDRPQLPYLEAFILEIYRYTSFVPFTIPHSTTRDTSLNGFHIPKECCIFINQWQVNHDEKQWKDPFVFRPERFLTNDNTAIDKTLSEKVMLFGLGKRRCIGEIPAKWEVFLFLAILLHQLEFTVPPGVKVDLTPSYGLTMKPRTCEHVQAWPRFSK
T2 sequence (P11711 whole entry): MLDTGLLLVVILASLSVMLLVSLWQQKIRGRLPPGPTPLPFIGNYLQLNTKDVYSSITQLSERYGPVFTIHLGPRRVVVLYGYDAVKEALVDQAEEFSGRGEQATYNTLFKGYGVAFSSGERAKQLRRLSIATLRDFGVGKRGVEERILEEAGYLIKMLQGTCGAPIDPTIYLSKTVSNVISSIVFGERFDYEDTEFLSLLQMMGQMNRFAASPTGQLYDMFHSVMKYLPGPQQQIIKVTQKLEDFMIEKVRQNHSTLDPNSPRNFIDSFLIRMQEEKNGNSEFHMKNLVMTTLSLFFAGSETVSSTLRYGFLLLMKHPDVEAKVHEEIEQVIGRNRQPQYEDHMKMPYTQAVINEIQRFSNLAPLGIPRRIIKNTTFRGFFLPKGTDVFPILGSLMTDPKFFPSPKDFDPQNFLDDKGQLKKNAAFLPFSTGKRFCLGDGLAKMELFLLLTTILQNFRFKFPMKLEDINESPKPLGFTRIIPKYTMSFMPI
T3 sequence (P10633 whole entry): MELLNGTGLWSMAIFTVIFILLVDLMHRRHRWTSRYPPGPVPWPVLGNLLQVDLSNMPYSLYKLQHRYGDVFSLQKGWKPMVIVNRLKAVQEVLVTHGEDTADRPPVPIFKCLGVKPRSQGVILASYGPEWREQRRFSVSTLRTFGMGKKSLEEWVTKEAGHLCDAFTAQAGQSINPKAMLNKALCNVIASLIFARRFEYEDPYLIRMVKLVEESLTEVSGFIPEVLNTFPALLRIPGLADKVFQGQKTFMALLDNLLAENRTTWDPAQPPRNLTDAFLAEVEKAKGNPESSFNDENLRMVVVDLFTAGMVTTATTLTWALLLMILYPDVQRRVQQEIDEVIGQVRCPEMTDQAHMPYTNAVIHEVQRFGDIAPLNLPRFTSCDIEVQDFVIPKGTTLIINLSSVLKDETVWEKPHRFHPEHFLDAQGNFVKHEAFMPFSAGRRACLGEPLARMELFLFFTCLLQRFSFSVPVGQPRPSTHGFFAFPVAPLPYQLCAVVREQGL
T4 sequence (P08684 whole entry): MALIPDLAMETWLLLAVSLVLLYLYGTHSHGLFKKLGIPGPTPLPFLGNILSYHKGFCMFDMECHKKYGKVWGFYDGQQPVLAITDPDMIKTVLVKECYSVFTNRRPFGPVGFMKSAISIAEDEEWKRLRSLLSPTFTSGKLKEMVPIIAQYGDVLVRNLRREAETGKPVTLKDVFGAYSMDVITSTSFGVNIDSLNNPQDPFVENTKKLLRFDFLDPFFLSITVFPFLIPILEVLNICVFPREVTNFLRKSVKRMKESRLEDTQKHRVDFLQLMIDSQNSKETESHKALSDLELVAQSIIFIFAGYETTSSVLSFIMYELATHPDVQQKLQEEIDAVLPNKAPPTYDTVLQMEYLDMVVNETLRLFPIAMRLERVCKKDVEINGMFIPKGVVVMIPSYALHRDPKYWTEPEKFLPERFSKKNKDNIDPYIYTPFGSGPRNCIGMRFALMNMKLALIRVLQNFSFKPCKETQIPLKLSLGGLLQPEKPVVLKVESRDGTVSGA

Structure (SMILES): N#Cc1cccc(-c2noc(-c3cccnc3)n2)c1 [A-998679, 3-(5-pyridin-3-yl-1,2,4-oxadiazol-3-yl) benzonitrile]
- Cyp1a1 mRNA expression in rat jejunum (Cyp1a1; 200 mg/kg): significantly decreased
- Cyp1a1 mRNA expression in rat jejunum (Cyp1a1; 30 and 100 mg/kg, high interindividual variability): increased
- Cyp1a2 mRNA levels in rat jejunum (Cyp1a2): unchanged
- % parent remaining (rat Cyp1a2; recombinant rat Cyp 1A2, 0.10 μM): 0%
- % parent remaining (rat Cyp1a2; recombinant rat Cyp 1A2, 0.21 μM): 0%
- % parent remaining (rat Cyp 2A1; recombinant rat Cyp 2A1, 0.10 μM): 100%
- % parent remaining (rat Cyp 2A1; recombinant rat Cyp 2A1, 0.21 μM): 100%
- % parent remaining (rat Cyp 2D1; recombinant rat Cyp 2D1, 0.10 μM): 91.9%
- % parent remaining (rat Cyp 2D1; recombinant rat Cyp 2D1, 0.21 μM): 91.1%
- IC50 (CYP3A4): > 30 µM
